Laboratory results: ChEMBL document CHEMBL4813932, “Terpenoid Constituents of Perovskia artemisioides Aerial Parts with Inhibitory Effects on Bacterial Biofilm Growth” (2021)

What was measured:
Assay in all cases: microbe, parasite or virus in culture
Assay type in all cases: functional
[1] = test system: Pectobacterium carotovorum; details: ATCC 15713, time 48 hrs
Description: Antibiofilm activity against Pectobacterium carotovorum ATCC 15713 assessed as inhibition of bacterial metabolism within the biofilm at 4 ug/ml measured after 48 hrs by MTT assay relative to control

[2] = test system: Listeria monocytogenes; details: ATCC 7644, time 48 hrs
Description: Antibiofilm activity against Listeria monocytogenes ATCC 7644 assessed as inhibition of biofilm formation at 8 ug/ml measured after 48 hrs by crystal violet staining based assay relative to control

[3] = test system: Acinetobacter baumannii; details: ATCC 19606 = CIP 70.34 = JCM 6841, time 48 hrs
Description: Antibiofilm activity against Acinetobacter baumannii ATCC 19606 assessed as inhibition of bacterial metabolism within the biofilm at 8 ug/ml measured after 48 hrs by MTT assay relative to control

[4] = test system: Escherichia coli; details: DSM 8579, time 48 hrs
Description: Antibiofilm activity against Escherichia coli DSM 8579 assessed as inhibition of bacterial metabolism within the biofilm at 40 ug/ml measured after 48 hrs by MTT assay relative to control

[5] = test system: Staphylococcus aureus; details: ATCC 25923, time 48 hrs
Description: Antibiofilm activity against Staphylococcus aureus ATCC 25923 assessed as inhibition of bacterial metabolism within the biofilm at 8 ug/ml measured after 48 hrs by MTT assay relative to control

[6] = test system: Staphylococcus aureus; details: ATCC 25923, time 48 hrs; remark: listed apart in the source
Description: Antibiofilm activity against Staphylococcus aureus ATCC 25923 assessed as inhibition of biofilm formation at 4 ug/ml measured after 48 hrs by crystal violet staining based assay relative to control

[7] = test system: Staphylococcus aureus; details: ATCC 25923, time 48 hrs; remark: listed apart in the source
Description: Antibiofilm activity against Staphylococcus aureus ATCC 25923 assessed as inhibition of bacterial metabolism within the biofilm at 4 ug/ml measured after 48 hrs by MTT assay relative to control

[8] = test system: Pseudomonas aeruginosa; details: ATCC 50071, time 48 hrs
Description: Antibiofilm activity against Pseudomonas aeruginosa ATCC 50071 assessed as inhibition of biofilm formation at 4 ug/ml measured after 48 hrs by crystal violet staining based assay relative to control

[9] = test system: Acinetobacter baumannii; details: ATCC 19606 = CIP 70.34 = JCM 6841, time 48 hrs; remark: listed apart in the source
Description: Antibiofilm activity against Acinetobacter baumannii ATCC 19606 assessed as inhibition of bacterial metabolism within the biofilm at 4 ug/ml measured after 48 hrs by MTT assay relative to control

[10] = test system: Acinetobacter baumannii; details: ATCC 19606 = CIP 70.34 = JCM 6841, time 48 hrs; remark: listed apart in the source
Description: Antibiofilm activity against Acinetobacter baumannii ATCC 19606 assessed as inhibition of biofilm formation at 4 ug/ml measured after 48 hrs by crystal violet staining based assay relative to control

[11] = test system: Escherichia coli; details: DSM 8579, time 48 hrs; remark: listed apart in the source
Description: Antibiofilm activity against Escherichia coli DSM 8579 assessed as inhibition of bacterial metabolism within the biofilm at 80 ug/ml measured after 48 hrs by MTT assay relative to control

[12] = test system: Acinetobacter baumannii; details: ATCC 19606 = CIP 70.34 = JCM 6841, time 48 hrs; remark: listed apart in the source
Description: Antibiofilm activity against Acinetobacter baumannii ATCC 19606 assessed as inhibition of biofilm formation at 8 ug/ml measured after 48 hrs by crystal violet staining based assay relative to control

[13] = test system: Pseudomonas aeruginosa; details: ATCC 50071, time 48 hrs; remark: listed apart in the source
Description: Antibiofilm activity against Pseudomonas aeruginosa ATCC 50071 assessed as inhibition of bacterial metabolism within the biofilm at 8 ug/ml measured after 48 hrs by MTT assay relative to control

[14] = test system: Listeria monocytogenes; details: ATCC 7644, time 48 hrs; remark: listed apart in the source
Description: Antibiofilm activity against Listeria monocytogenes ATCC 7644 assessed as inhibition of bacterial metabolism within the biofilm at 4 ug/ml measured after 48 hrs by MTT assay relative to control

[15] = test system: Escherichia coli; details: DSM 8579, time 48 hrs; remark: listed apart in the source
Description: Antibiofilm activity against Escherichia coli DSM 8579 assessed as inhibition of biofilm formation at 40 ug/ml measured after 48 hrs by crystal violet staining based assay relative to control

[16] = test system: Pseudomonas aeruginosa; details: ATCC 50071, time 48 hrs; remark: listed apart in the source
Description: Antibiofilm activity against Pseudomonas aeruginosa ATCC 50071 assessed as inhibition of bacterial metabolism within the biofilm at 4 ug/ml measured after 48 hrs by MTT assay relative to control

[17] = test system: Escherichia coli; details: DSM 8579, time 48 hrs; remark: listed apart in the source
Description: Antibiofilm activity against Escherichia coli DSM 8579 assessed as inhibition of biofilm formation at 80 ug/ml measured after 48 hrs by crystal violet staining based assay relative to control

[18] = test system: Listeria monocytogenes; details: ATCC 7644, time 48 hrs; remark: listed apart in the source
Description: Antibiofilm activity against Listeria monocytogenes ATCC 7644 assessed as inhibition of bacterial metabolism within the biofilm at 8 ug/ml measured after 48 hrs by MTT assay relative to control

[19] = test system: Pectobacterium carotovorum; details: ATCC 15713, time 48 hrs; remark: listed apart in the source
Description: Antibiofilm activity against Pectobacterium carotovorum ATCC 15713 assessed as inhibition of biofilm formation at 8 ug/ml measured after 48 hrs by crystal violet staining based assay relative to control

[20] = test system: Staphylococcus aureus; details: ATCC 25923, time 48 hrs; remark: listed apart in the source
Description: Antibiofilm activity against Staphylococcus aureus ATCC 25923 assessed as inhibition of biofilm formation at 8 ug/ml measured after 48 hrs by crystal violet staining based assay relative to control

[21] = test system: Pectobacterium carotovorum; details: ATCC 15713, time 48 hrs; remark: listed apart in the source
Description: Antibiofilm activity against Pectobacterium carotovorum ATCC 15713 assessed as inhibition of bacterial metabolism within the biofilm at 8 ug/ml measured after 48 hrs by MTT assay relative to control

[22] = test system: Listeria monocytogenes; details: ATCC 7644, time 48 hrs; remark: listed apart in the source
Description: Antibiofilm activity against Listeria monocytogenes ATCC 7644 assessed as inhibition of biofilm formation at 4 ug/ml measured after 48 hrs by crystal violet staining based assay relative to control

[23] = test system: Pseudomonas aeruginosa; details: ATCC 50071, time 48 hrs; remark: listed apart in the source
Description: Antibiofilm activity against Pseudomonas aeruginosa ATCC 50071 assessed as inhibition of biofilm formation at 8 ug/ml measured after 48 hrs by crystal violet staining based assay relative to control

[24] = test system: Pectobacterium carotovorum; details: ATCC 15713, time 48 hrs; remark: listed apart in the source
Description: Antibiofilm activity against Pectobacterium carotovorum ATCC 15713 assessed as inhibition of biofilm formation at 4 ug/ml measured after 48 hrs by crystal violet staining based assay relative to control

Compound | inhibition at 4 µg/mL [1] [%] | inhibition at 8 µg/mL [2] [%] | inhibition at 8 µg/mL [3] [%] | inhibition at 40 µg/mL [4] [%] | inhibition at 8 µg/mL [5] [%] | inhibition at 4 µg/mL [6] [%] | inhibition at 4 µg/mL [7] [%] | inhibition at 4 µg/mL [8] [%] | inhibition at 4 µg/mL [9] [%] | inhibition at 4 µg/mL [10] [%] | inhibition at 80 µg/mL [11] [%] | inhibition at 8 µg/mL [13] [%] | inhibition at 4 µg/mL [14] [%] | inhibition at 40 µg/mL [15] [%] | inhibition at 4 µg/mL [16] [%] | inhibition at 80 µg/mL [17] [%] | inhibition at 8 µg/mL [18] [%] | inhibition at 8 µg/mL [20] [%] | inhibition at 4 µg/mL [22] [%] | inhibition at 8 µg/mL [23] [%] | other results
CC(C)c1cc2c(c(O)c1O)C[C@@]1(O)[C@@H](O)CCC(C)(C)[C@@H]1CC2 | 0 | 0 | 96.7 | 0 | 78.2 | 39.3 | 75.8 | 33.4 | 0 | 48.6 | 0 | 0 | 9.6 | 0 | 0 | 0 | 13.1 | 79.7 | 0 | 65.7 | inhibition at 8 µg/mL [12]: 51.7%; inhibition at 8 µg/mL [19]: 0%; inhibition at 8 µg/mL [21]: 1.5%; inhibition at 4 µg/mL [24]: 0%
CC(C)c1cc2c(c(O)c1O)[C@@]13CCCC(C)(C)[C@@H]1[C@@H](O)[C@@H]2OC3=O [ISOROSMANOL] | 56.4 | 63.9 | 48.5 | 42.2 | 17 | 0 | 0 | 75.4 | 2.5 | 13.2 | 52.1 | 14.7 | 16.2 | 42.9 | 0 | 53 | 25.2 | 56.2 | 25 | 80.5 | inhibition at 8 µg/mL [12]: 43.9%; inhibition at 8 µg/mL [19]: 66.9%; inhibition at 8 µg/mL [21]: 62.8%; inhibition at 4 µg/mL [24]: 66.3%
CC(C)c1cc2c(c(O)c1O)[C@@]1(C(=O)O)CCCC(C)(C)[C@@H]1CC2 [CARNOSIC ACID] | 41.3 | 0 | 57 | 2.7 | 35.5 | 64.1 | 33.5 | 51.7 | 36.3 | 18.9 | 10.7 | 42.7 | 33.3 | 60 | 27.7 | 78.5 | 55.6 | 83.7 | 0 | 83 | inhibition at 8 µg/mL [12]: 91.2%; inhibition at 8 µg/mL [19]: 25.8%; inhibition at 8 µg/mL [21]: 47.3%; inhibition at 4 µg/mL [24]: 43.6%
CO[C@@H]1c2cc(C(C)C)c(O)c(O)c2[C@@]23CCCC(C)(C)[C@@H]2[C@@H]1OC3=O | 4.4 | 0 | 38.8 | 0 | 34.6 | 34.4 | 45.3 | 55.8 | 49.2 | 12.7 | 6.1 | 1.5 | 23.6 | 0 | 0 | 0 | 29.7 | 91.8 | 0 | 76.5 | inhibition at 8 µg/mL [12]: 21%; inhibition at 8 µg/mL [19]: 67.7%; inhibition at 8 µg/mL [21]: 5.7%; inhibition at 4 µg/mL [24]: 35.5%
CCCCCC [HEXANE] | 45.5 | 98.3 | 34.7 | 74.2 | 99.2 | 71.8 | 98.6 | 94.8 | 25.2 | 35.7 | 78 | 97 | 49.1 | 87.6 | 95.5 | 95.8 | 77.3 | 93.7 | 92.4 | 97.9 | inhibition at 8 µg/mL [12]: 48.5%; inhibition at 8 µg/mL [19]: 97.8%; inhibition at 8 µg/mL [21]: 49.4%; inhibition at 4 µg/mL [24]: 94.8%
CC(C)c1cc2c(c(O)c1O)[C@@]13CCCC(C)(C)[C@@H]1[C@H](OC3=O)[C@H]2O [ROSMANOL] | 45.6 | 68.7 | 20.3 | 0 | 70.6 | 45.1 | 63.8 | 68.4 | 6.9 | 44.2 | 0 | 9.5 | 24.9 | 0 | 3.7 | 0 | 39.8 | 79.9 | 47.3 | 73.1 | inhibition at 8 µg/mL [12]: 55.5%; inhibition at 8 µg/mL [19]: 26.2%; inhibition at 8 µg/mL [21]: 46.6%; inhibition at 4 µg/mL [24]: 0%
CC(C)c1cc2c(c(O)c1O)[C@@]13CCCC(C)(C)[C@@H]1C[C@@H]2OC3=O [CARNOSOL] | 35.8 | 46.7 | 49 | 0 | 84.8 | 95.9 | 68.2 | 39 | 7.1 | 43.2 | 0 | 5.4 | 27.6 | 0 | 0 | 0 | 40.4 | 100 | 17.2 | 88.5 | inhibition at 8 µg/mL [12]: 47.2%; inhibition at 8 µg/mL [19]: 100%; inhibition at 8 µg/mL [21]: 69.1%; inhibition at 4 µg/mL [24]: 49.1%
C=CC(C)(O)C/C=C/C(C)(C)O (centres undefined) | – | 85 | – | 52 | 44.4 | 13.3 | 42.2 | 75.9 | – | – | 64 | 71.3 | 9.1 | 30.4 | 68.1 | 78.6 | 38.1 | 40.7 | 78 | 84.7 | –
CC(C)c1cc2c(c(O)c1O)[C@@]13CCCC(C)(C)[C@@H]1[C@H](OC3=O)[C@@H]2O [EPIROSMANOL] | 32.5 | 63.4 | 11.1 | 0 | 23.6 | 68.4 | 0 | 70.7 | 8.9 | 26.3 | 0 | 9.2 | 24.7 | 0 | 0 | 11.3 | 55.6 | 81.7 | 0 | 74.8 | inhibition at 8 µg/mL [12]: 56.9%; inhibition at 8 µg/mL [19]: 53.8%; inhibition at 8 µg/mL [21]: 56.3%; inhibition at 4 µg/mL [24]: 33.6%
CC(C)c1cc2c(c(O)c1O)C1=C(CC2)C(C)(C)CCC1=O [SAGEONE] | – | 0.9 | – | 6.8 | 0 | 0 | 0 | 0 | – | – | 24.6 | 0 | 0 | 13.7 | 0 | 45.5 | 0.9 | 0 | 0 | 0 | –
